Measured values taken from patent US20040147788A1, “Stilbene derivatives and their use as aryl hydrocarbon receptor antagonistic ligands” (priority 2002, published 2004).

Columns and labels:
[1] = target: T1, Estrogen Receptors extracted from MCF-7 cells (Homo sapiens, UniProt P03372); test: Ligand binding competition assay (Estrogen Receptor), [3H]Estradiol
T1 construct: Estrogen Receptors extracted from MCF-7 cells; endogenous in cells; host or cells: MCF-7 (ATCC) cytosol
T1 sequence (P03372 1-595): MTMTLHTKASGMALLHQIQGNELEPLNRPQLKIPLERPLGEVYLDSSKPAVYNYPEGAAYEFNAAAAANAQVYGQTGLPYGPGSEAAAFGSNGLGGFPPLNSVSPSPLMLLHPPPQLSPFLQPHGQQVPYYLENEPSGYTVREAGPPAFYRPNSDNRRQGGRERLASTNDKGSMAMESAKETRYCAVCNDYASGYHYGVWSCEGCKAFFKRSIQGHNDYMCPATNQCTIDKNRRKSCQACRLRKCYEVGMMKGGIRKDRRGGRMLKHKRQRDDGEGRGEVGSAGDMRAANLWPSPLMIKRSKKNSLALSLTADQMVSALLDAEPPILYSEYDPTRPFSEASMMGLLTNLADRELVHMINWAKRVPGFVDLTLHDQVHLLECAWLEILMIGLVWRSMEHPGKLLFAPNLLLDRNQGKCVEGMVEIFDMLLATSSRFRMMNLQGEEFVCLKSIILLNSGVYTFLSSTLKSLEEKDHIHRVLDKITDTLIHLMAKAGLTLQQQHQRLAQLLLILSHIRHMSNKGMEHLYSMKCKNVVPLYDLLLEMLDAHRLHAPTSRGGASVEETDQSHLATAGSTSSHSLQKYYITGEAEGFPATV
Description: Ligand Binding Competition Assay (Estrogen Receptor)
ER binding experiments were conducted using Estrogen Receptors extracted from MCF-7 cells as previously described (4). Briefly MCF-7 (from ATCC) were grown to 80% confluency in DMEM medium (GiBCO BRL) suplemented with 10% FCS. Cells were then scraped, and washed twice with PBS. After centrifugation for 10 minutes at 1500 rpm, the cells were resuspended in TM buffer (20 mM Tris, HCl pH 7.4; sodium molybdate, 20 mM). Cells were broken by freeze-thaw lysis of the cell pellets in an equal volume of TM buffer. Cytosolic receptors were prepared by a 105.000 g×60 minutes centrifugation at 0° C., and then stored at −80° C. This cytosolic receptor solution was diluted to 60% in TM buffer, and then incubated with the corresponding ligand for 18 hr at 4° C. in a volume of 100 μl with 50 μg of protein and 2 nM of [3H]Estradiol and two concentrations (1 and 10 μM) of unlabeled test ligand. Assays were terminated by loading 65 μl of the incubate on a 1.2 ml Sephadex TM LH-20 column equilibrated with the TM buffer. The flow through was collected and counted for radioactivity in ready safe scintillant (Beckman).

AhR = target: T2, AhR (Homo sapiens, UniProt P35869); test: AhR-mediated transactivation, DRE-TK-CAT stable cell line 47DRE treated with TCDD; format: cell-based; set-up: endogenous in cells; key to AhR T.A. (transcriptional activity): Ago: agonist; N.M.: not measurable; settings: DRE-TKCAT reporter; for AhR TA (transcriptional activity): cis-stilbenes, 10^−9 M TCDD challenged by 10−7 M compound; for AhR T.A. (transcriptional activity): trans-stilbenes, 10^−9 M TCDD challenged by 10^−7 M compound
T2 sequence (P35869 11-848): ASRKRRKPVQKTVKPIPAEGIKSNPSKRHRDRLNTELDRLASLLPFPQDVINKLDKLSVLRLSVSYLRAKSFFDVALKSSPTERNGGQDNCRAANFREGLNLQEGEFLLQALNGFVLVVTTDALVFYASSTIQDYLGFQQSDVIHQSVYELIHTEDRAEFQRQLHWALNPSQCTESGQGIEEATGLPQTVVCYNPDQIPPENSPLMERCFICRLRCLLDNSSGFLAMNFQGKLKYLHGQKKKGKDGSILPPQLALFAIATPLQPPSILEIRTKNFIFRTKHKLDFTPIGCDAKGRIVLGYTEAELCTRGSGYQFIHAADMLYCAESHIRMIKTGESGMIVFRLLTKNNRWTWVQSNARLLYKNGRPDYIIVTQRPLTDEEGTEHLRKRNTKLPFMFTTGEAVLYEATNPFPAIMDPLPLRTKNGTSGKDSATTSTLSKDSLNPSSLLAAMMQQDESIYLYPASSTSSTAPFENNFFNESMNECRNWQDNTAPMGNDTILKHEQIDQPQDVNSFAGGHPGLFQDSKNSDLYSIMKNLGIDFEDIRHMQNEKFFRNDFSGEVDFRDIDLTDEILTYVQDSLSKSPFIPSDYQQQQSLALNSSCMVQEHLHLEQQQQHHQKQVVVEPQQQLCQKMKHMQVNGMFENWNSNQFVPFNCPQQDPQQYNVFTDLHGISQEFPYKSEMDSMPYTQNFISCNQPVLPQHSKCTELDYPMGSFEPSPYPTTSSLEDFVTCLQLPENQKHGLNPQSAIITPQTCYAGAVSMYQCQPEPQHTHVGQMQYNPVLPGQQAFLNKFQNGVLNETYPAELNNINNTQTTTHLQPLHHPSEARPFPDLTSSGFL
Description: Cis and Trans isomers were then tested for transcriptional modulatory activity in a DRE-TK-CAT containing stable cell line treated with TCDD.
mp° C.: melting point. Ago: agonist. N.M.: not measurable. RBA: relative binding affinity of the compound for the given receptor (AhR or ER).
The stable cell line 47DRE bearing the TCDD-responsive CAT construct was previously described (3). It was routinely grown in DMEM medium supplemented with 10% fetal calf serum (FCS), 4.5 g/L glucose, and 0.6 units/ml (10^−6 M) insulin. Unless stated otherwise, cells were established 24 hours before any experiment in a modified medium (stripped condition) containing 5% Dextran-charcoal-treated newbom calf serum instead of 10% FCS. All other components remained unchanged. […] All chemicals applied to the cells were diluted in ethanol, control cells received ethanol alone. CAT expression was assayed on whole cell extracts (100 μg protein) with a CAT-ELISA assay (Roche, Meylan, France) according to supplier's specifications. Experiments were done in triplicate.

ER RBA (relative binding affinity) ([1]; cis-stilbenes) | AhR TA (transcriptional activity) (AhR) | affinity for ER [1] | ER RBA (relative binding affinity) ([1]; trans-stilbenes) | AhR T.A. (transcriptional activity) (AhR) | SMILES
N.M | Ant | – | – | – | COc1ccc(/C=C\c2cc(Cl)cc(Cl)c2)cc1 [Compound 5j, (Z)-1-(4-methoxyphenyl)-2-(3,5-dichlorophenyl)-ethene]
– | – | – | N.M | Ant | Fc1ccc(/C=C/c2cc(F)cc(F)c2)cc1 [Compound 4d, (E)-1-(4-fluorophenyl)-2-(3,5-difluorophenyl)-ethene]
– | – | without detectable affinity | N.M | Ant | COc1ccc(/C=C/c2cc(Cl)cc(Cl)c2)cc1 [Compound 4j, (E)-1-(4-methoxyphenyl)-2-(3,5-dichlorophenyl)-ethene]
– | – | – | N.M | Ant | CCOc1ccc(/C=C/c2cc(OC)cc(OC)c2)cc1 [Compound 4g, (E)-1-(4-ethoxyphenyl)-2-(3,5-dimethoxyphenyl)-ethene]
N.M | Ant | – | – | – | FC(F)(F)c1ccc(/C=C\c2cc(Cl)cc(Cl)c2)cc1 [Compound 5i, (Z)-1-(4-trifluoromethylphenyl)-2-(3,5-dichlorophenyl)-ethene]
– | – | – | N.M | Ant | COc1ccc(/C=C/c2cc(F)cc(F)c2)cc1 [Compound 4c, (E)-1-(4-methoxyphenyl)-2-(3,5-difluorophenyl)-ethene]
N.M | Ant | – | – | – | COc1ccc(/C=C\c2cc(F)cc(F)c2)cc1 [Compound 5c, (Z)-1-(4-methoxyphenyl)-2-(3,5-difluorophenyl)-ethene]
– | – | without detectable affinity | N.M | Ant | FC(F)(F)c1ccc(/C=C/c2cc(C(F)(F)F)cc(C(F)(F)F)c2)cc1 [Compound 4e, (E)-1-(4-trifluoromethylphenyl)-2-(3,5-ditrifluoromethylphenyl)-ethene]
– | – | – | N.M | Ago | FC(F)(F)c1ccc(/C=C/c2cc(Cl)cc(Cl)c2)cc1 [Compound 4i, (E)-1-(4-trifluoromethylphenyl)-2-(3,5-dichlorophenyl)-ethene]
– | – | – | N.M | Ant | COc1cc(/C=C/c2ccc(F)cc2)cc(OC)c1 [Compound 4f, (E)-1-(4-fluorophenyl)-2-(3,5-dimethoxyphenyl)-ethene]
N.M | Ant | – | – | – | Fc1ccc(/C=C\c2cc(F)cc(F)c2)cc1 [Compound 5d, (Z)-1-(4-fluorophenyl)-2-(3,5-difluorophenyl)-ethene]
N.M | Ant | – | – | – | COc1cc(/C=C\c2ccc(F)cc2)cc(OC)c1 [Compound 5f, (Z)-1-(4-fluorophenyl)-2-(3,5-dimethoxyphenyl)-ethene]
N.M | Ant | – | – | – | CCOc1ccc(/C=C\c2cc(OC)cc(OC)c2)cc1 [Compound 5g, (Z)-1-(4-ethoxyphenyl)-2-(3,5-dimethoxyphenyl)-ethene]
N.M | Ant | – | – | – | FC(F)(F)c1ccc(/C=C\c2cc(C(F)(F)F)cc(C(F)(F)F)c2)cc1 [Compound 5e, (Z)-1-(4-trifluoromethylphenyl)-2-(3,5-ditrifluoromethylphenyl)-ethene]

SMILES | ER RBA (relative binding affinity) ([1]; cis-stilbenes) | AhR TA (transcriptional activity) (AhR) | affinity for ER [1] | ER RBA (relative binding affinity) ([1]; trans-stilbenes) | AhR T.A. (transcriptional activity) (AhR)
Clc1ccc(/C=C/c2cc(Cl)cc(Cl)c2)cc1 [Compound 4b, (E)-1-(4-chlorophenyl)-2-(3,5-dichlorophenyl)-ethene] | – | – | without detectable affinity | N.M | Ant
COc1ccc(/C=C/c2cc(OC)cc(OC)c2)cc1 [Compound 4a, (E)-1-(4-methoxyphenyl)-2-(3,5-dimethoxyphenyl)-ethene] | – | – | – | 0.03 | Ant
COc1ccc(/C=C\c2cc(OC)cc(OC)c2)cc1 [Compound 5a, (Z)-1-(4-methoxyphenyl)-2-(3,5-dimethoxyphenyl)-ethene] | 0.06 | Ant | – | – | –
CCCCOc1ccc(/C=C/c2cc(OC)cc(OC)c2)cc1 [Compound 4h, (E)-1-(4-butoxyphenyl)-2-(3,5-dimethoxyphenyl)-ethene] | – | – | – | N.M | Ant
Clc1ccc(/C=C\c2cc(Cl)cc(Cl)c2)cc1 [Compound 5b, (Z)-1-(4-chlorophenyl)-2-(3,5-dichlorophenyl)-ethene] | N.M | Ant | – | – | –
CCCCOc1ccc(/C=C\c2cc(OC)cc(OC)c2)cc1 [Compound 5h, (Z)-1-(4-butoxyphenyl)-2-(3,5-dimethoxyphenyl)-ethene] | N.M | Ant | – | – | –
